Assay: Hydroxocobalamin-containing solutions
Assay type: physicochemical
Procedure: A variety of solutions containing hydroxocobalamin (HO-Cbl) were tested. The excipients tested in these studies were the same as those used above: (a) 15% ethanol; (b) 20% ethanol; (c) 20% propylene glycol; (d) 40% propylene glycol; (e) 15% ethanol and 20% propylene glycol; and (f) 20% ethanol and 40% propylene glycol. Here, however, three challenge amounts were tested (˜16, 40, and 81 mg/ml HO-Cbl) and the time course was slightly longer, with measurements being made on Day 3 and Day 5. The OH-Cbl was solubilized at room temperature, as it dissolved readily in the excipients tested. If necessary or desired, the solutions can be mixed by shaking briefly (using, for example, a vortex or other agitation for a few seconds (e.g., 5-20 seconds) to a minute or so (e.g., 1-3 minutes). Following suitable dilution, the absorbance at […] was measured.

With C/C1=C2/[N-][C@H]([C@H](CC(N)=O)[C@@]2(C)CCC(=O)NC[C@@H](C)OP(=O)([O-])O[C@H]2[C@@H](O)[C@@H](n3cnc4cc(C)c(C)cc43)O[C@@H]2CO)[C@]2(C)N=C(/C(C)=C3N=C(/C=C4N=C1[C@@H](CCC(N)=O)C\4(C)C)[C@@H](CCC(N)=O)[C@]\3(C)CC(N)=O)[C@@H](CCC(N)=O)[C@]2(C)CC(N)=O.[Co+3].[OH-] [OH-Cbl, hydroxocobalamin] the “concentrations of HO-Cbl versus control (water) values” (any of the solutions tested, any of the three challenge amounts) was “did not substantially exceed control values”, the “Conc of OH-Cbl” value (challenge 16.18 mg/mL, ethanol 0%, PG 0%, Day 0) was 0 µg/mL and the “Conc of OH-Cbl” value (challenge 16.18 mg/mL, ethanol 0%, PG 0%, Day 3) was 16830 µg/mL. The “Conc of OH-Cbl” value (challenge 16.18 mg/mL, ethanol 0%, PG 0%, Day 5) was 16930 µg/mL, the “Conc of OH-Cbl” value (challenge 16.18 mg/mL, ethanol 0%, PG 20%, Day 0) was 0 µg/mL and the “Conc of OH-Cbl” value (challenge 16.18 mg/mL, ethanol 0%, PG 20%, Day 3) was 17100 µg/mL. The “Conc of OH-Cbl” value (challenge 16.18 mg/mL, ethanol 0%, PG 20%, Day 5) was 17310 µg/mL, the “Conc of OH-Cbl” value (challenge 16.18 mg/mL, ethanol 0%, PG 40%, Day 0) was 0 µg/mL and the “Conc of OH-Cbl” value (challenge 16.18 mg/mL, ethanol 0%, PG 40%, Day 3) was 16780 µg/mL. The “Conc of OH-Cbl” value (challenge 16.18 mg/mL, ethanol 0%, PG 40%, Day 5) was 17100 µg/mL, the “Conc of OH-Cbl” value (challenge 16.18 mg/mL, ethanol 15%, PG 0%, Day 0) was 0 µg/mL and the “Conc of OH-Cbl” value (challenge 16.18 mg/mL, ethanol 15%, PG 0%, Day 3) was 16670 µg/mL. For the same compound, the “Conc of OH-Cbl” value (challenge 16.18 mg/mL, ethanol 15%, PG 0%, Day 5) was 17060 µg/mL, the “Conc of OH-Cbl” value (challenge 16.18 mg/mL, ethanol 15%, PG 20%, Day 0) was 0 µg/mL and the “Conc of OH-Cbl” value (challenge 16.18 mg/mL, ethanol 15%, PG 20%, Day 3) was 16940 µg/mL. For the same compound, the “Conc of OH-Cbl” value (challenge 16.18 mg/mL, ethanol 15%, PG 20%, Day 5) was 17440 µg/mL, the “Conc of OH-Cbl” value (challenge 16.18 mg/mL, ethanol 20%, PG 0%, Day 0) was 0 µg/mL and the “Conc of OH-Cbl” value (challenge 16.18 mg/mL, ethanol 20%, PG 0%, Day 3) was 17050 µg/mL. For the same compound, the “Conc of OH-Cbl” value (challenge 16.18 mg/mL, ethanol 20%, PG 0%, Day 5) was 17140 µg/mL, the “Conc of OH-Cbl” value (challenge 16.18 mg/mL, ethanol 20%, PG 40%, Day 0) was 0 µg/mL and the “Conc of OH-Cbl” value (challenge 16.18 mg/mL, ethanol 20%, PG 40%, Day 3) was 16250 µg/mL. For the same compound, the “Conc of OH-Cbl” value (challenge 16.18 mg/mL, ethanol 20%, PG 40%, Day 5) was 16590 µg/mL, the “Conc of OH-Cbl” value (challenge 40.45 mg/mL, ethanol 0%, PG 0%, Day 0) was 0 µg/mL and the “Conc of OH-Cbl” value (challenge 40.45 mg/mL, ethanol 0%, PG 0%, Day 3) was 41900 µg/mL. The “Conc of OH-Cbl” value (challenge 40.45 mg/mL, ethanol 0%, PG 0%, Day 5) was 41680 µg/mL, the “Conc of OH-Cbl” value (challenge 40.45 mg/mL, ethanol 0%, PG 20%, Day 0) was 0 µg/mL and the “Conc of OH-Cbl” value (challenge 40.45 mg/mL, ethanol 0%, PG 20%, Day 3) was 41680 µg/mL. For the same compound, the “Conc of OH-Cbl” value (challenge 40.45 mg/mL, ethanol 0%, PG 20%, Day 5) was 41470 µg/mL, the “Conc of OH-Cbl” value (challenge 40.45 mg/mL, ethanol 0%, PG 40%, Day 0) was 0 µg/mL and the “Conc of OH-Cbl” value (challenge 40.45 mg/mL, ethanol 0%, PG 40%, Day 3) was 41790 µg/mL. For the same compound, the “Conc of OH-Cbl” value (challenge 40.45 mg/mL, ethanol 0%, PG 40%, Day 5) was 41790 µg/mL, the “Conc of OH-Cbl” value (challenge 40.45 mg/mL, ethanol 15%, PG 0%, Day 0) was 0 µg/mL and the “Conc of OH-Cbl” value (challenge 40.45 mg/mL, ethanol 15%, PG 0%, Day 3) was 41150 µg/mL. For the same compound, the “Conc of OH-Cbl” value (challenge 40.45 mg/mL, ethanol 15%, PG 0%, Day 5) was 41470 µg/mL, the “Conc of OH-Cbl” value (challenge 40.45 mg/mL, ethanol 15%, PG 20%, Day 0) was 0 µg/mL and the “Conc of OH-Cbl” value (challenge 40.45 mg/mL, ethanol 15%, PG 20%, Day 3) was 41040 µg/mL. For the same compound, the “Conc of OH-Cbl” value (challenge 40.45 mg/mL, ethanol 15%, PG 20%, Day 5) was 42220 µg/mL, the “Conc of OH-Cbl” value (challenge 40.45 mg/mL, ethanol 20%, PG 0%, Day 0) was 0 µg/mL and the “Conc of OH-Cbl” value (challenge 40.45 mg/mL, ethanol 20%, PG 0%, Day 3) was 41580 µg/mL. For the same compound, the “Conc of OH-Cbl” value (challenge 40.45 mg/mL, ethanol 20%, PG 0%, Day 5) was 41040 µg/mL, the “Conc of OH-Cbl” value (challenge 40.45 mg/mL, ethanol 20%, PG 40%, Day 0) was 0 µg/mL and the “Conc of OH-Cbl” value (challenge 40.45 mg/mL, ethanol 20%, PG 40%, Day 3) was 41360 µg/mL. For the same compound, the “Conc of OH-Cbl” value (challenge 40.45 mg/mL, ethanol 20%, PG 40%, Day 5) was 41580 µg/mL, the “Conc of OH-Cbl” value (challenge 80.90 mg/mL, ethanol 0%, PG 0%, Day 0) was 0 µg/mL and the “Conc of OH-Cbl” value (challenge 80.90 mg/mL, ethanol 0%, PG 0%, Day 3) was 81020 µg/mL. For the same compound, the “Conc of OH-Cbl” value (challenge 80.90 mg/mL, ethanol 0%, PG 0%, Day 5) was 80800 µg/mL, the “Conc of OH-Cbl” value (challenge 80.90 mg/mL, ethanol 0%, PG 20%, Day 0) was 0 µg/mL and the “Conc of OH-Cbl” value (challenge 80.90 mg/mL, ethanol 0%, PG 20%, Day 3) was 83800 µg/mL. For the same compound, the “Conc of OH-Cbl” value (challenge 80.90 mg/mL, ethanol 0%, PG 20%, Day 5) was 82090 µg/mL, the “Conc of OH-Cbl” value (challenge 80.90 mg/mL, ethanol 0%, PG 40%, Day 0) was 0 µg/mL and the “Conc of OH-Cbl” value (challenge 80.90 mg/mL, ethanol 0%, PG 40%, Day 3) was 81870 µg/mL. For the same compound, the “Conc of OH-Cbl” value (challenge 80.90 mg/mL, ethanol 0%, PG 40%, Day 5) was 82730 µg/mL, the “Conc of OH-Cbl” value (challenge 80.90 mg/mL, ethanol 15%, PG 0%, Day 0) was 0 µg/mL and the “Conc of OH-Cbl” value (challenge 80.90 mg/mL, ethanol 15%, PG 0%, Day 3) was 82730 µg/mL. For the same compound, the “Conc of OH-Cbl” value (challenge 80.90 mg/mL, ethanol 15%, PG 0%, Day 5) was 82940 µg/mL, the “Conc of OH-Cbl” value (challenge 80.90 mg/mL, ethanol 15%, PG 20%, Day 0) was 0 µg/mL and the “Conc of OH-Cbl” value (challenge 80.90 mg/mL, ethanol 15%, PG 20%, Day 3) was 81230 µg/mL. The “Conc of OH-Cbl” value (challenge 80.90 mg/mL, ethanol 15%, PG 20%, Day 5) was 80160 µg/mL, the “Conc of OH-Cbl” value (challenge 80.90 mg/mL, ethanol 20%, PG 0%, Day 0) was 0 µg/mL and the “Conc of OH-Cbl” value (challenge 80.90 mg/mL, ethanol 20%, PG 0%, Day 3) was 82090 µg/mL. For the same compound, the “Conc of OH-Cbl” value (challenge 80.90 mg/mL, ethanol 20%, PG 0%, Day 5) was 80590 µg/mL, the “Conc of OH-Cbl” value (challenge 80.90 mg/mL, ethanol 20%, PG 40%, Day 0) was 0 µg/mL and the “Conc of OH-Cbl” value (challenge 80.90 mg/mL, ethanol 20%, PG 40%, Day 3) was 82940 µg/mL. The “Conc of OH-Cbl” value (challenge 80.90 mg/mL, ethanol 20%, PG 40%, Day 5) was 82730 µg/mL.
